Strand notation (5' to 3'): a small letter for the sugar, then the base; units joined by * are phosphorothioate-linked, units joined directly phosphodiester-linked; [ ] holds rarer units or linkages, { } end groups; capitals alone tell only the bases. e = 2'-O-(2-methoxyethyl) (MOE); k = constrained ethyl (cEt); [5mC] = 5-methylcytosine; d = 2'-deoxy (DNA); m = 2'-O-methyl
System: Yap1 mRNA
Assay: Antisense inhibition of human Yap1 in SNU-449 cells by modified oligonucleotides, single dose (Example 5, RTS36584)
Format: cell-based
Method in brief: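 Free uptake, 2,000 nM, ~48 h, SNU-449 at 10,000 cells/well. Read-out: qRT-PCR (RTS36584), RIBOGREEN-normalised, expressed as % UTC. Asterisk = oligo hits amplicon region.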

[1] = Table 40 (separate experiment), SNU-449 cells, 10,000 cells per well, free uptake, 2,000 nM oligonucleotide, approx. 48 hours, RTS36584, normalized to RIBOGREEN, Yap1 mRNA relative to untreated control
[2] = Table 52, Yap1 mRNA, modified oligonucleotides targeting SEQ ID NO: 1 and 2
[3] = Table 41, SNU-449 cells, 10,000 cells per well, free uptake, 2,000 nM modified oligonucleotide, approximately 48 hours, RTS36584, normalized to RIBOGREEN, Yap1 mRNA relative to untreated control cells
[4] = Table 46, Yap1 mRNA as percent of untreated control, SNU-449 cells, single dose
[5] = Table 45, Yap1 mRNA as percent of untreated control, SNU-449 cells, single dose
[6] = Table 44 experiment, SNU-449 cells, 10,000 cells per well, free uptake, 2,000 nM, approximately 48 hours, RTS36584, Yap1 mRNA normalized to RIBOGREEN, relative to untreated control cells
[7] = Table 49, Yap1 mRNA level relative to untreated control, modified oligonucleotides targeting SEQ ID NO.: 1 and 2

1197271 (kT*kT*kT*dA*mA*dA*dG*dT*dG*dT*dA*dT*dG*kT*k[5mC]*kA) [Compound 1197271]
YAP1 (% UT) (Table 51, Yap1 mRNA remaining as percent of untreated control (UT), SNU-449 cells, single dose): 12 % UT

1198779 (antisense kA*eA*kT*dA*dT*dT*dG*d[5mC]*dA*dA*dT*d[5mC]*eT*eG*kT*k[5mC]) [Compound 1198779]
YAP1 (% UTC) [1]: 49 % UTC

1197190 (antisense k[5mC]*kT*kT*dT*dG*dG*dA*dA*dG*dA*dT*d[5mC]*dT*kG*kA*kA) [Compound 1197190]
YAP1 (% UT) (Yap1 mRNA, percent of untreated control, modified oligonucleotides targeting SEQ ID NO: 1 and 2, Table 47): 57 % UT

1198285 (kA*kT*kT*dG*dT*d[5mC]*dT*d[5mC]*dA*dT*dG*d[5mC]*k[5mC]*eT*kT*eA; antisense) [Compound 1198285]
YAP1 (% UT) (Table 48, Yap1 mRNA level relative to untreated control, modified oligonucleotides targeting SEQ ID NO.: 1 and 2): 13 % UT

1200858 (kA*kA*kG*dT*dG*mU*dA*dT*dG*dT*d[5mC]*dA*dG*kA*kA*kG; antisense) [Compound 1200858]
YAP1 (% UT) [2]: 10 % UT

1198669 (antisense kA*kG*dG*dA*dT*dG*d[5mC]*dA*dT*dG*dG*dT*kT*eT*kT*eT) [Compound 1198669]
YAP1 (% UTC) [3]: 61 % UTC

1198966 (kA*kA*d[5mC]*dT*dT*dT*dA*dA*dA*dG*dT*kG*dT*kA*dT*kG) [Compound 1198966]
YAP1 (% UT) [4]: 78 % UT

1198929 (kA*kG*dT*dG*d[5mC]*dT*dT*dT*dG*dG*dA*kA*dG*kA*dT*k[5mC]) [Compound 1198929]
YAP1 (% UTC) [5]: 43 % UTC

1198722 (kA*eT*kA*dT*dG*dG*dA*dA*dA*dT*dT*dG*eT*e[5mC]*kT*k[5mC]; antisense) [Compound 1198722]
YAP1 (% UTC) [1]: 48 % UTC

1198797 (antisense kA*eA*kG*dT*dA*dA*dG*dG*dT*dT*dT*d[5mC]*e[5mC]*e[5mC]*kA*kG) [Compound 1198797]
YAP1 (% UTC) [1]: 31 % UTC

1198420 (kA*dT*dA*dT*dG*dG*dT*dT*dT*dT*dG*kT*eG*kT*eG*kT; antisense) [Compound 1198420]
YAP1 (% UTC) (Table 39, SNU-449 cells, 10,000 cells per well, free uptake, 2,000 nM oligonucleotide, approx. 48 hours, RTS36584, normalized to RIBOGREEN, Yap1 mRNA relative to untreated control): 41 % UTC

1198854 (kA*kT*dA*dT*dG*dG*dT*dT*dT*dT*dG*kT*eG*kT*eG*kT; antisense) [Compound 1198854]
YAP1 (% UT) [4]: 56 % UT

1198538 (kA*k[5mC]*dT*dA*dA*dG*dT*dA*dA*dG*dG*eT*kT*eT*k[5mC]*e[5mC]; antisense) [Compound 1198538]
YAP1 (% UTC) [6]: 29 % UTC

1200825 (kT*kG*k[5mC]*dT*dT*mU*dG*dG*dA*dA*dG*dA*dT*k[5mC]*kT*kG; antisense) [Compound 1200825]
YAP1 (% UT) [2]: 39 % UT

1198654 (kA*k[5mC]*dT*dT*dT*dT*dA*d[5mC]*dA*dT*dT*dA*kG*eG*kA*eA; antisense) [Compound 1198654]
YAP1 (% UTC) [3]: 91 % UTC

1198850 (kA*kG*dA*dT*dT*dT*dA*dG*dG*dA*dT*kG*e[5mC]*kA*eT*kG; antisense) [Compound 1198850]
YAP1 (% UT) [4]: 33 % UT

1198964 (kT*kT*dT*dA*dA*dA*dG*dT*dG*dT*dA*kT*dG*kT*d[5mC]*kA; antisense) [Compound 1198964]
YAP1 (% UTC) [5]: 59 % UTC

1198338 (k[5mC]*kT*k[5mC]*dT*dT*dA*dT*dA*dT*dG*dG*dT*kT*eT*kT*eG; antisense) [Compound 1198338]
YAP1 (% UT) [7]: 24 % UT

1197286 (kA*kT*kA*dT*mU*dA*dG*dA*dG*dT*dA*dT*dG*kT*kG*kG) [Compound 1197286]
YAP1 (% UT) (Table 50, Yap1 mRNA remaining as percent of untreated control (UT), SNU-449 cells, single dose): 43 % UT

1198360 (kA*kA*k[5mC]*dT*dT*dT*dA*dA*dA*dG*dT*dG*kT*eA*kT*eG; antisense) [Compound 1198360]
YAP1 (% UT) [7]: 74 % UT

1198664 (antisense kG*k[5mC]*dT*dT*dT*dG*dG*dA*dA*dG*dA*dT*k[5mC]*eT*kG*eA) [Compound 1198664]
YAP1 (% UTC) [3]: 18 % UTC

1198267 (kA*kG*dT*dG*dT*dA*dT*dG*dT*d[5mC]*dA*eG*eA*eA*kG*kA; antisense) [Compound 1198267]
YAP1 (% UTC) (Table 43 experiment, SNU-449 cells, 10,000 cells per well, free uptake, 2,000 nM, approximately 48 hours, RTS36584, Yap1 mRNA normalized to RIBOGREEN, relative to untreated control cells): 7 % UTC

1198507 (kT*kT*dA*dT*dA*dT*dG*dG*dT*dT*dT*eT*kG*eT*kG*eT; antisense) [Compound 1198507]
YAP1 (% UTC) [6]: 17 % UTC

1200870 (kA*k[5mC]*kT*dA*dA*mG*dT*dA*dA*dG*dG*dT*dT*kT*k[5mC]*k[5mC]; antisense) [Compound 1200870]
YAP1 (% UT) [2]: 73 % UT

Source: patent publication US11214803B2, “Modulators of YAP1 expression” (Ionis Pharmaceuticals, Inc., priority 2019, dated 2022)
